The values that follow are results of earlier work, collected in patent US20240325432A1, “COMPOSITION AND METHODS OF TREATMENT USING TRANSDERMAL SUPPLEMENTATION” (Xygenyx Inc., priority 2023, published 2024).

The conditions of series [1]: as penetration enhancer.
Series [2] concerns wide dynamic range neurons in the ventroposterolateral nucleus of the thalamus. Conditions: believed.
Another series deals with F2-isoprostane. Particulars: 1600-3200 IU/day.
For series [3] the following is noted: compared to α-tocopherol = 1.0.
Another series relates to rheumatoid arthritis. Conditions: arthritic subjects.
For series [4] the following is noted: even when dietary intake occurs in equal portions.
In series [5] the test system is markers of inflammation in the blood. Particulars: individuals with metabolic syndrome.
For series [6] the following is noted: in vivo.

Take `CC(C)[C@@H]1CC[C@@H](C)C[C@H]1O` [Menthol]: in series [1], the “increase of transdermal drug uptake (factor)” value is not below 10.

For `CCCCCc1cc(O)c2c(c1)OC(C)(C)C1CCC(C)=CC21` (stereo not drawn) [THC, Δ-9-tetrahydrocannabinol], in [2], the “analgesic power relative to morphine” value is given as “ten times more powerful than morphine”.

`CC12CCC(CC1)C(C)(C)O2` [eucalyptol, 1,8-epoxy-p-menthane]: in series [1], the “increase of transdermal drug uptake (factor)” value is “more than 10”.

In the case of `Cc1c(C)c2c(c(C)c1O)CC[C@@](C)(CCC[C@H](C)CCC[C@H](C)CCCC(C)C)O2` [α-tocopherol], the “blood plasma concentration of F2-isoprostane” value in the series with F2-isoprostane is listed as “significantly lower”. Moreover, the relative biological activity in [3] was 1.0. Moreover, under “400-500 IU in combination with 10-20 mg β-carotene and 400-500 mg vitamin C”, the “reduction in the development of age-related cataracts” value is recorded as 23%. In addition, the “reduction of risk of coronary disease” value (dietary supplementation, doses up to 400 IU/day) is recorded as “up to 34%”. The “reduction of risk of developing neurodegenerative diseases (Alzheimer's Syndrome or dementia)” value (dietary supplementation, doses up to 400 IU/day, controlled trials) is not above 24%.

As for `C=C1CC/C=C(\C)CC[C@@H]2[C@@H]1CC2(C)C` [β-caryophyllene], the “swelling of joints and lymph nodes” value in the series with rheumatoid arthritis is “reduced swelling of joints and lymph nodes”.

`Cc1cc(O)c(C)c2c1O[C@](C)(CCC[C@H](C)CCC[C@H](C)CCCC(C)C)CC2` [β-tocopherol]: the relative biological activity in series [3] is recorded as 0.5.

Regarding `Cc1c(O)cc2c(c1C)O[C@](C)(CCC[C@H](C)CCC[C@H](C)CCCC(C)C)CC2` [γ-tocopherol], the “concentration in vivo relative to α-tocopherol” value in series [4] is “roughly 10%”. The relative biological activity in [3] is given as 0.1.

As for `Cc1cc(O)cc2c1O[C@](C)(CCC[C@H](C)CCC[C@H](C)CCCC(C)C)CC2` [δ-tocopherol], in [3], the relative biological activity was 0.03. Further, in series [5], the “markers of inflammation in the blood” value is “reduced markers of inflammation”.

With “HGH: hormone comprising a peptide chain that is synthesized in the pituitary gland”, the biological half-life in series [6] is recorded as 10-20 minutes.
